Measured values taken from paper PMC6950057, “Toxicity, Pharmacokinetics, and Gut Microbiome of Oral Administration of Sesterterpene MHO7 Derived from a Marine Fungus” (Marine Drugs, 2019).
Like-named read-outs stand apart in the source and are kept apart here.

Legend:
[1] = Plasma pharmacokinetics after single oral dose; type: in vivo; conditions: mice plasma, single oral 500 mg·kg^−1, female mice
Procedure: Ninety female KM mice of 8–10 weeks of age (20–22 g) were divided randomly into 15 groups, and, after fasting for 12 h, the mice in other experiments were oral administrated at the dose of 500 mg·kg^−1 bw. About 500 μL blood samples were collected at 0.5, 1, 2, 3, 4, 5, 6, 8, 10, 12, 16, 20, 24, 30 and 36 h into heparinized tubes after the intragastric administration of MHO7. All blood samples were immediately centrifuged at 8000 g for 5 min and the resulting plasma was transferred and then processed as described in sample preparation for the analysis by LC-MS/MS. MHO7 levels in plasma were quantified by HPLC–MS/MS. The calibration curve was constructed by plotting the peak area ratio of MHO7 to the internal standard and the linearity was determined by weighted (1/x) linear regression analysis. The regression equation of the calibration curve was then used to calculate the concentration of MHO7 in the plasma. QC samples and standard curve series solutions were prepared in the same way of blank plasma. The concentrations of HQC, MQC, and LQC were 5, 0.5, and 0.05 μM·L^−1, respectively, and the concentrations of standard curve series solutions were 5, 2.5, 1, 0.5, 0.25, 0.1, 0.05, and 0.01 μM·L^−1.
Data for each group are presented as mean ± SD. Statistical significance of different formulations were measured by one-way analysis of variance (ANOVA) followed by the Tukey Kramer multiple comparison test, using SPSS software version 14.0 (SPSS, Chicago, IL, USA), and the statistical significance was expressed by a p-value of less than 0.05. The main pharmacokinetic parameters of MHO7 was fitted by the average mean of a group in each time point with the Phoenix WinNonLin software version 6.3 (Pharsight, Cary, NC, USA). The gut microbiome analysis was performed using the free online platform of Majorbio Cloud Platform (www.majorbio.com).

[2] = Log D by shaking flask method (n-octanol/phosphate buffer); type: physicochemical; conditions: 37 °C
Procedure: (§1) An HPLC system (Shimadzu, Japan) was equipped with a LC-20AD binary pump system, a SIL-20AD auto sampler, a CBM-20A system controller, and a CTO-20A oven. Separation of MHO7 and IS from endogenous substances was carried out on an Agilent Zorbax XDB C18 column (5 μm, 250 × 4.6 mm, Agilent, Pal Alto, CA, USA), which was kept at 30 °C. The mobile phase was composed of 30% phase A (water) and 70% phase B (acetonitrile) with a flow rate of 1 mL·min^−1. The inject volume of the sample solution was 10 μL.
(§2) The phases of distilled water and n-octanol were saturated with each other by shaking for 48 h with 250 rpm in a shaking water bath prior to use. Solutions of MHO7 was prepared in concentration of 10 mM·L^−1 in n-octanol. Accurately measured amounts of the two solvents with necessary quantity of MHO7 were placed in a 5.0 mL centrifuge tube; then, the mixture was carried out at 250 rpm and designated temperature in the shaking water bath for 48 h to afford complete phase separation. The samples of both phases were collected at 0, 4, 8, 12, 24, 30, 36 and 48 h, diluted with methanol (1:1, V) and determined by HPLC with the detection wavelength of 234 nm. Each set of solvent systems for experimental logP/D value was the mean of the three determinations.

[3] = Stability in simulated gastric fluid (SGF); type: in vitro ADME; conditions: for percentage concentration remaining in SGF: at 8 h
Procedure: SGF was prepared with modifications according to Lee et al. (2012) by mixing 100 mL of distilled water with a pH value set to 2.0 with hydrochloric acid and 1 g pepsin solution (800–2000 U/mg of protein). SIF was produced according to USP specifications (Test Solutions, United States Pharmacopeia 35, NF 30, 2012). Monobasic potassium phosphate (0.68 g) was dissolved in 25 mL of water. Then, 7.7 mL of 0.2 M NaOH was added to adjust the pH to 6.8. To this, 1 g of pancreatin was added and shaken gently until dissolved and the volume adjusted to 100 mL with water. Pancreatin was added after adjusting the pH of the solution to 6.8 to avoid precipitation of the enzyme.
Aliquots (199 µL) of SGF and SIF were placed in 1.5 mL microcentrifuge tubes and incubated at 37 °C for 10 min in a water bath, respectively. Different concentrations of MHO7 (1 µL) were added to each of the above microcentrifuge tubes to start the reaction with being incubated at 37 °C at 250 rpm in a shaking water bath. The reaction was stopped by adding ice ACN (800 µL) to each tube at intervals of 0, 0.5, 1, 2, 4, 6, and 8 h. The samples were vortexed for 15 min and centrifuged at 4 °C and 15,000 rpm for 15 min. After centrifuging the supernatant layer was taken directly for LC-MS analysis. Each experiment was carried out in triplicate, and average values were plotted. QC samples were prepared in the same way of inactivating pepsin in SGF incubation system at the concentrations of 1, 0.1 and 0.01 μM·L^−1 for HQC, MQC and LQC, respectively.

[4] = tested on: breast cancer cells (MCF-7); set-up: method as in PMID 31175940; conditions: mechanism of down regulating estrogen receptor alpha (ERα); cited from earlier work
[5] = Log P by shaking flask method (n-octanol/water); type: physicochemical
Procedure: as §1, §2

[6] = pH 7, 37 °C, octanol/ddH2O, read-out: Log P/D Value O/W (pH 7.0)

CC(C)=C/C=C/[C@H](C)[C@H]1CC[C@]2(C)C[C@@H]3C(C)=CC(=O)[C@H]3/C(C=O)=C\C[C@@H]12 [MHO7, 6-epi-ophiobolin G]
AUC ([1]; KM, mouse): 10500 ng·h/mL | Cmax ([1]; KM, mouse): 1380 ng/mL | MRT ([1]; KM, mouse): 8.76 h | half-life ([1]; KM, mouse): 6.97 h | k el ([1]; KM, mouse, read-out: Lambda_z (converted)): 2.78e-05 s⁻¹ | Tmax ([1]; female, KM, mouse, plasma, po, 500 mg/kg): ~8 h | V/F [1]: 479.02 L/kg | logD at 4 h ([2]; octanol/PBS pH 1.5, 4 h, read-out: Log P/D Value O/P (pH 1.5)): 1.29 ± 0.02 | logD at 8 h ([2]; octanol/PBS pH 1.5, 8 h, read-out: Log P/D Value O/P (pH 1.5)): 1.22 ± 0.04 | logD at 12 h ([2]; octanol/PBS pH 1.5, 12 h, read-out: Log P/D Value O/P (pH 1.5)): 1.13 ± 0.03 | logD at 24 h ([2]; octanol/PBS pH 1.5, 24 h, read-out: Log P/D Value O/P (pH 1.5)): 1.13 ± 0.02 | logD at 30 h ([2]; octanol/PBS pH 1.5, 30 h, read-out: Log P/D Value O/P (pH 1.5)): 1.12 ± 0.15 | logD at 36 h ([2]; octanol/PBS pH 1.5, 36 h, read-out: Log P/D Value O/P (pH 1.5)): 1.12 ± 0.03 | logD at 48 h ([2]; octanol/PBS pH 1.5, 48 h, read-out: Log P/D Value O/P (pH 1.5)): 1.12 ± 0.03 | logD at 4 h ([2]; octanol/PBS pH 5.0, 4 h, read-out: Log P/D Value O/P (pH 5.0)): 1.15 ± 0.02 | logD at 8 h ([2]; octanol/PBS pH 5.0, 8 h, read-out: Log P/D Value O/P (pH 5.0)): 1.03 ± 0.05 | logD at 12 h ([2]; octanol/PBS pH 5.0, 12 h, read-out: Log P/D Value O/P (pH 5.0)): 0.95 ± 0.03 | logD at 24 h ([2]; octanol/PBS pH 5.0, 24 h, read-out: Log P/D Value O/P (pH 5.0)): 0.95 ± 0.04 | logD at 30 h ([2]; octanol/PBS pH 5.0, 30 h, read-out: Log P/D Value O/P (pH 5.0)): 0.95 ± 0.03 | logD at 36 h ([2]; octanol/PBS pH 5.0, 36 h, read-out: Log P/D Value O/P (pH 5.0)): 0.93 ± 0.03 | logD at 48 h ([2]; octanol/PBS pH 5.0, 48 h, read-out: Log P/D Value O/P (pH 5.0)): 0.93 ± 0.02 | logD at 4 h ([2]; octanol/PBS pH 7.4, 4 h, read-out: Log P/D Value O/P (pH 7.4)): 1.39 ± 0.03 | logD at 8 h ([2]; octanol/PBS pH 7.4, 8 h, read-out: Log P/D Value O/P (pH 7.4)): 1.37 ± 0.05 | logD at 12 h ([2]; octanol/PBS pH 7.4, 12 h, read-out: Log P/D Value O/P (pH 7.4)): 1.31 ± 0.03 | logD at 24 h ([2]; octanol/PBS pH 7.4, 24 h, read-out: Log P/D Value O/P (pH 7.4)): 1.29 ± 0.02 | logD at 30 h ([2]; octanol/PBS pH 7.4, 30 h, read-out: Log P/D Value O/P (pH 7.4)): 1.27 ± 0.04 | logD at 36 h ([2]; octanol/PBS pH 7.4, 36 h, read-out: Log P/D Value O/P (pH 7.4)): 1.26 ± 0.05 | logD at 48 h ([2]; octanol/PBS pH 7.4, 48 h, read-out: Log P/D Value O/P (pH 7.4)): 1.26 ± 0.01 | percentage concentration remaining in SGF ([3]; MHO7 added at 0.05 mM·L^−1, 37 °C): 76.19 ± 0.99% | percentage concentration remaining in SGF ([3]; initial addition 0.5 mM·L^−1, 37 °C): 80.2 ± 3.15% | stability in SGF ([3]; under the concentration of 5 mM·L^−1): stable | antitumor activity [4]: potent antitumor activity | logP at 4 h ([5]; 25 °C, read-out: Log P Value): 1.23 ± 0.02 | logP at 8 h ([5]; 25 °C, read-out: Log P Value): 1.22 ± 0.04 | logP at 12 h ([5]; 25 °C, read-out: Log P Value): 1.23 ± 0.03 | logP at 24 h ([5]; 25 °C, read-out: Log P Value): 1.23 ± 0.02 | logP at 30 h ([5]; 25 °C, read-out: Log P Value): 1.27 ± 0.15 | logP at 36 h ([5]; 25 °C, read-out: Log P Value): 1.27 ± 0.03 | logP at 48 h ([5]; 25 °C, read-out: Log P Value): 1.29 ± 0.05 | logP at 4 h [5, 6]: 2.55 ± 0.01 | logP at 8 h [5, 6]: 2.51 ± 0.04 | logP at 12 h [5, 6]: 2.48 ± 0.02 | logP at 24 h [5, 6]: 2.49 ± 0.02 | logP at 30 h [5, 6]: 2.47 ± 0.01 | logP at 36 h [5, 6]: 2.49 ± 0.03 | logP at 48 h [5, 6]: 2.48 ± 0.03
